In patent US20050209278A1, “Piperidinyl- and piperazinyl-sulfonylmethyl hydroxamic acids and their use as protease inhibitors” (priority 2002, published 2005) one finds IC50 data, which are given here for 10 compounds.

For the assay, the target named is T1, MMP-2 (Homo sapiens, UniProt P08253).
T1 construct: made in house; host or cells: MMP-2-transfected p2AHT2 cells
T1 sequence (P08253 110-660): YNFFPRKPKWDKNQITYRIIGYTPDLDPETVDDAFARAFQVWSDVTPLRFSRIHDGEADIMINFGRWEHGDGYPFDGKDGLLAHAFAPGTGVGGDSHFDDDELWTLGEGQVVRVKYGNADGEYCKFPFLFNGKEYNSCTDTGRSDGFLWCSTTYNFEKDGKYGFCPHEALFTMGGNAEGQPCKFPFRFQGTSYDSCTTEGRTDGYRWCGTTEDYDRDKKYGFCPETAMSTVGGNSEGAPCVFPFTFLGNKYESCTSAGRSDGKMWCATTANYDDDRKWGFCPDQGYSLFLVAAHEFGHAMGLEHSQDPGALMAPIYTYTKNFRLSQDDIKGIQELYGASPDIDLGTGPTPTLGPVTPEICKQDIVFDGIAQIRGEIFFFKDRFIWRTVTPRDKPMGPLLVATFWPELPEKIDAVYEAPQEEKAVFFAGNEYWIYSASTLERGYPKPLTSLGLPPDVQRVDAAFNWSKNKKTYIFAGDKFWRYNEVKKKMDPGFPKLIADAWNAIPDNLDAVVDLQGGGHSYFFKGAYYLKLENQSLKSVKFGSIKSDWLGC
The experiment in a line: In vitro MMP inhibition, IC50 determination (fluorogenic substrate I). Format: biochemical. The note with it: value in parentheses; read-out: MMP-2 (IC-50). How it is done: Several hydroxamic acids and salts thereof were analyzed in in vitro assays to determine their ability to inhibit the MMP cleavage of peptide substrates. […] and IC50 constants were calculated from the assayed hydroxamic acid-MMP interactions.
Human recombinant MMP-1, MMP-2, MMP-9, MMP-13, and MMP-14 were used in this assay. All enzymes were prepared in Assignee's laboratories following usual laboratory procedures. Protocols for the preparation and use of these enzymes are available in the scientific literature. See, e.g., Enzyme Nomenclature (Academic Press, San Diego, Calif., 1992) (and the citations therein). See also, Freije et al., “Molecular cloning and expression of collagenase-3, a novel human matrix metalloproteinase produced by breast carcinomas,” J Biol. Chem., 269(24), 16766-16773 (1994).
The MMP-2 proenzyme was purified by gelatin Sepharose chromatography from MMP-2-transfected p2AHT2 cells provided by Dr. Gregory Goldberg of Washington University (St. Louis, Mo.).
All MMPs were activated using 4-aminophenylmercuric acetate (“APMA”, Sigma Chemical, St. Louis, Mo.) or trypsin. MMP-9 also was activated using human recombinant MMP-3 (purified in Assignee's laboratory following standard cloning and purification techniques).
Two fluorogenic, methoxycoumarin-containing polypeptide substrates were used in the MMP inhibition assays: [drawing 427] Here, “Dpa” is 3-(2,4-dinitrophenyl)-L-2,3-diaminopropionyl group, and “MCA” is 7-methoxycoumarin-4-yl acetyl. Substrate (I) was purchased from Baychem (Redwood City, Calif.), and substrate II was prepared Assignee's laboratory. Substrate I was used in the IC50 determination assays, while substrate II was used in the Ki determination assays. In the absence of MMP inhibitory activity, either substrate is cleaved at the Gly-Leu peptide bond. This cleavage separates the highly fluorogenic peptide from the 2,4-dinitrophenyl quencher, thus resulting in increase of fluorescent intensity.
The stock solutions of the assayed hydroxamic acids (or salts thereof) were prepared in 1% dimethyl sulfoxide (DMSO). These stock solutions were diluted in Buffer A (100 mM Tris-HCl, 100 mM NaCl, 10 mM CaCl2, 0.05% polyoxyethylene 23 lauryl ether, pH 7.5) to obtain solutions with different hydroxamic acid concentrations, i.e., assay solutions with different concentrations of the assayed MMP inhibitory compound. The experiment controls contained the same amount of Buffer A/DMSO as the assayed sample, but contained no hydroxamic acid (or salt thereof).
The assays from which the IC50 determinations were made were performed as follows. The MMPs were activated with either trypsin or APMA (4-aminophenylmercuric acetate, Sigma Chemical, St. Louis, Mo.). The assayed hydroxamic acid samples were incubated in Microfluor™ White Plates (Dynatech, Chantilly, Va.) and analyzed on a Perkin Elmer L550 plate reader (Norwalk, Conn.). The excitation wavelength was 328 nm, and the emission wavelength—415 nm. All samples (assayed hydroxamic acids and controls) were incubated in separate plates at room temperature in the presence of 4 μM of MMP substrate (I). As stated in the previous paragraph, samples containing varying concentrations of the same assayed hydroxamic acid were prepared. Inhibition was measured as a reduction in fluorescent intensity as a function of MMP inhibitor concentration.
The above protocols were used to determine IC50 constants and Ki values for the compounds in Examples 1-27 above. All values in Table 2 are given in nM units. The IC50 measurements are in parenthesis.

`CCCCOc1ccc(N2CCN(S(=O)(=O)C3(C(=O)NO)CCN(C(=O)CN)CC3)CC2)cc1` [Example 292]: the IC50 worked out at 0.2 nM.
To `CCCCOc1ccc(N2CCN(S(=O)(=O)C3(C(=O)NO)CCN(Cc4cccnc4)CC3)CC2)cc1F` [Example 293] belongs 0.3 nM; to `CCCCOc1ccc(N2CCN(S(=O)(=O)C3(C(=O)NO)CCN(c4ccc(C)cc4)CC3)CC2)cc1` [Example 295], less than 0.1 nM.
Turning to `CCCCOc1ccc(N2CCN(S(=O)(=O)C3(C(=O)NO)CCN(c4ccc(C)cc4)CC3)CC2)cc1F` [Example 296], the IC50 was less than 0.1 nM.
The figure for `COCCOc1ccc(N2CCN(S(=O)(=O)C3(C(=O)NO)CCN(C4CC4)CC3)CC2)cc1F` [Example 297] is 0.4 nM; for `CCCCOc1ccc(N2CCN(S(=O)(=O)C3(C(=O)NO)CCN(CC4CC4)CC3)CC2)cc1` [Example 298] it is 1.1 nM; for `Cc1cc(N2CCN(S(=O)(=O)C3(C(=O)NO)CCOCC3)CC2)ccc1OC(C)C` [Example 299] it is 12.5 nM.
On to `CS(=O)(=O)c1ccc(N2CCN(S(=O)(=O)C3(C(=O)NO)CCOCC3)CC2)cc1` [Example 300], for which the IC50 is 27.3 nM.
The figure for `CCCCOc1ccc(N2CCN(S(=O)(=O)C3(C(=O)NO)CCN(C4CC4)CC3)CC2)cc1` [Example 301] is 0.2 nM; for `C#CCN1CCC(C(=O)NO)(S(=O)(=O)N2CCN(c3ccc(OCCCC)cc3)CC2)CC1` [Example 303] it is 0.1 nM.
